Test results as given in patent US20260078122A1, “INDAZOLE COMPOUNDS AS PKMYT1 KINASE INHIBITORS” (Hoffmann-La Roche Inc., priority 2023, published 2026).
Where two headings read alike, the source gives them in different places.

How the values were obtained:
[1] = GSH adduct screening assay; type: in vitro ADME, human; parameters: key: GSH adducts found (Flag); or not (No Flag); details: 20 μM compound, HLM 1 mg/ml, 5 mM GSH, 1 mM NADPH, 60 minutes at 37° C.
[2] = Human microsome stability assay; details: 1 μM compound, 0.5 mg/mL liver microsomal protein, 1 mM NADPH, 37° C., 0-30 minutes
[3] = Human hepatocyte stability assay; type: in vitro ADME; details: 1 μM compound, 1*10^6 cells/mL, 2-120 min
[4] = microsomes, pH 7.4
[5] = target: T1, recombinant human Myt1 (full length PKMYT1) (Homo sapiens, UniProt Q99640); experiment: ADP-Glo assay (Myt1 kinase activity)
T1 sequence (Q99640 1-499): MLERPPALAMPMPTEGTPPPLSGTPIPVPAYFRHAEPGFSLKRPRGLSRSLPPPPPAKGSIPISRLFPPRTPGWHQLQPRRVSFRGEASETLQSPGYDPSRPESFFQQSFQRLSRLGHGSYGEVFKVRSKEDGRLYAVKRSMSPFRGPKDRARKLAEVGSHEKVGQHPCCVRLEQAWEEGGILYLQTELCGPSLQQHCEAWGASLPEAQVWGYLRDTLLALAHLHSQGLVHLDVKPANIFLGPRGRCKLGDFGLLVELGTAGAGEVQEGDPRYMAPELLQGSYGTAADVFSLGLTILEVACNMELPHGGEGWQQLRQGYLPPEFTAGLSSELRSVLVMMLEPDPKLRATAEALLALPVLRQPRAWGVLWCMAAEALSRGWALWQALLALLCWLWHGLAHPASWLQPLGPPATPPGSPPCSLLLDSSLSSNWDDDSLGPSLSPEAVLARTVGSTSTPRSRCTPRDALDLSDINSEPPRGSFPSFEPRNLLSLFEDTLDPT

SMILES	GSH adduct [1]	Clearance of Human microsome [2]	Clearance of Human hepatocyte (μL/min/10^6 cell) [3]	Clearance of Human microsome [4]	IC50 [5]
Cc1cc2[nH]c(=O)c(N)c(-c3ccc(F)c4[nH]ncc34)c2nc1Cl [Example 003, 3-Amino-6-chloro-4-(7-fluoro-1H-indazol-4-yl)-7-methyl-1H-1,5-naphthyridin-2-one]	No Flag	8.88 mL/min/kg			
Nc1c(-c2ccc(F)c3[nH]ncc23)c2ncc(C3CC3)cc2[nH]c1=O [Example 015, 3-Amino-7-cyclopropyl-4-(7-fluoro-1H-indazol-4-yl)-1H-1,5-naphthyridin-2-one]	No Flag	7.03 mL/min/kg	2.6 μL/min/10^6 cell		
Cc1cc2[nH]c(=O)c(N)c(-c3ccc(F)c4[nH]ncc34)c2nc1N1CC2(COC2)C1 [Example 026, 3-Amino-4-(7-fluoro-1H-indazol-4-yl)-7-methyl-6-(2-oxa-6-azaspiro[3.3]heptan-6-yl)-1H-1,5-naphthyridin-2-one]				8.87 mL/min/kg	
C#Cc1cnc2c(-c3ccc(F)c4[nH]ncc34)c(N)c(=O)[nH]c2c1C [Example 124, 3-Amino-7-ethynyl-4-(7-fluoro-1H-indazol-4-yl)-8-methyl-1H-1,5-naphthyridin-2-one]	No Flag				< 10 nM
Cc1nc(Cl)c2c(-c3ccc(F)c4[nH]ncc34)c(N)c(=O)[nH]c2c1C [Example 160, 3-Amino-5-chloro-4-(7-fluoro-1H-indazol-4-yl)-7,8-dimethyl-1H-1,6-naphthyridin-2-one]	No Flag				11.5 nM
